Experimental data: the SangsterLogP compilation

Experiment: method code SF-HPLC, from DOI: 10.1002/(sici)1521-3838(199911)18:5<482::aid-qsar482>3.0.co;2-r
Conditions: pH 6.4

Structure (SMILES) | logD
S=c1[nH]nc(Cn2ccc3ccccc32)n1-c1ccccc1 | 2.68
S=c1[nH]nc(Cn2ccc3cc(Br)ccc32)n1-c1cccc2ccccc12 | 3.88
Cc1[nH]c2ccccc2c1Cc1nnc(Nc2ccccc2)s1 | 3.11
c1ccc2c(Nc3nnc(Cn4ccc5ccccc54)s3)cccc2c1 | 4.54
O=[N+]([O-])c1ccc2c(ccn2Cc2n[nH]c(=S)n2-c2ccccc2)c1 | 2.65
Cc1ccc(-n2c(Cn3ccc4cc([N+](=O)[O-])ccc43)n[nH]c2=S)cc1 | 3.17

Now from value to molecule:

logD | Structure (SMILES)
3 | Cc1ccc(-n2c(Cc3c(C)[nH]c4ccccc34)n[nH]c2=S)cc1
3.2 | Cc1ccc(-n2c(Cn3ccc4ccccc43)n[nH]c2=S)cc1
3.99 | Cc1ccc(Nc2nnc(Cn3ccc4ccccc43)s2)cc1
2.55 | Cc1[nH]c2ccccc2c1Cc1n[nH]c(=S)n1-c1ccccc1
